Source: US20090124631A1, “Combination Therapy” (priority 2007, published 2009)

Columns and labels:
Assay type in all cases: biochemical
HDAC5 = target: T1, HDAC5 (Homo sapiens, UniProt Q9UQL6); assay: Fluorescence-based HDAC enzyme assay, recombinant HDAC5; conditions: recombinant human HDAC enzyme in vitro; read-out: IC50 (μM) HD5
T1 construct: cDNAs encoding truncated versions of HDAC4, 5 and 7 encompassing their deacetylase domains; hexahistidine (N); made in house; host or cells: Sf-9 insect cells (baculovirus)
T1 sequence (Q9UQL6 684-1028 limits assumed): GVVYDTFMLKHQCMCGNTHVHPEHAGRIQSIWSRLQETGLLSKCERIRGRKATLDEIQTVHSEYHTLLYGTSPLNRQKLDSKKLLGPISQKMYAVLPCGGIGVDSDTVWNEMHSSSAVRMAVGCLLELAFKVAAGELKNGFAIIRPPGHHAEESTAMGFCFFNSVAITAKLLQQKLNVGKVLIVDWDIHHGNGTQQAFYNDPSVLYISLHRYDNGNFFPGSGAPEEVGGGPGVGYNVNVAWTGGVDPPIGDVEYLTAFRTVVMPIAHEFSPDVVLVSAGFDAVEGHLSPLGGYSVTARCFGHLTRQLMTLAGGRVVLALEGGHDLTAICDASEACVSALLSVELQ
Excerpt: (§1) cDNAs of human HDAC1-8 and 11 were generated by RT-PCR reactions using primers complementary to the 5′ and 3′ coding sequence of human HDAC gene sequences in GenBank. cDNAs corresponding to the full length human HDAC1, 2, 3 and 11 were cloned into pBlueBac4.5 vector (Invitrogen). The constructs were used to generate recombinant baculoviruses using the Bac-N-Blue™ DNA according to the manufacturer's instructions (Invitrogen). The recombinant HDAC1, 2, 3, 11 proteins produced harbor a FLAG tag at their C-termini. cDNAs encoding truncated versions of HDAC4, 5 and 7 encompassing their deacetylase domains were cloned into pDEST10 as an N-terminal hexahistidine fusion protein and recombinant baculoviruses were generated using the Bac-to-Bac™ Baculovirus expression system (Invitrogen). HDAC6 and 8 were cloned as full length N-terminally His-tagged protein. All HDAC proteins were expressed in insect Sf-9 cells (Spodoptera frugiperdai) upon infection with recombinant baculovirus. HDAC1 enzyme was purified from the Q-sepharose FF column (Amersham Pharmacia Biotech, Baie d'Urfe QC, Canada) followed by an anti-FLAG immunoaffinity column (Sigma). HDAC2, 3 and 11 were purified using Flag-antibody immunoaffinity purification. HDAC4, 5, 6, 7 and 8 were purified using either Ni-NTA resin (QIAGEN Mississauga ON, Canada) or His-Select resin (Sigma) with step washes and elution with different concentrations of imidazole in Buffer containing 25 mM Tris (or NaPO4) pH 8.0, 10% glycerol and 150 mM or 500 mM NaCl.
(§2) Recombinant HDAC enzymes were incubated with diluted compounds in assay buffer (25 mM Hepes, pH 8.0, 137 mM NaCl, 1 mM MgCl2 and 2.7 mM KCl) for 10 minutes at ambient temperatures in black 96-well plate. Boc-Lys(Ac)-AMC (for HDAC1, 2, 3, 6, and 8 enzymes), which was purchased from Bachem Biosciences Inc., (King of Prussia, Philadelphia) were added into enzyme-compound mixture and incubated at 37° C. For HDAC4, 5, 7 assays, Boc-Lys(TFA)-AMC, which was synthesized in house, was used as substrate and 0.1% BSA was added to the buffer. […] Reaction time was predetermined to ensure that reaction was linear for the incubation time. Reaction was stopped by adding a freshly prepared trypsin (1 mg/ml final concentration) with 1 μM TSA (Biomol) in assay buffer. After 30 minutes, fluorescence was measured using a fluorometer (SPECTRAMAX GeminiXS, Molecular Devices, Sunnylvale, Calif.). The 50% inhibitory concentrations (IC50) for inhibitors were determined by analyzing dose-response inhibition curves.

HDAC8 = target: T2, HDAC8 (Homo sapiens, UniProt Q9BY41); assay: Fluorescence-based HDAC enzyme assay, recombinant HDAC8; conditions: recombinant human HDAC enzyme in vitro; read-out: IC50 (μM) HD8
T2 construct: HDAC6 and 8 were cloned as full length N-terminally His-tagged protein; His tag (N); made in house; host or cells: Sf-9 insect cells (baculovirus)
T2 sequence (Q9BY41 1-377): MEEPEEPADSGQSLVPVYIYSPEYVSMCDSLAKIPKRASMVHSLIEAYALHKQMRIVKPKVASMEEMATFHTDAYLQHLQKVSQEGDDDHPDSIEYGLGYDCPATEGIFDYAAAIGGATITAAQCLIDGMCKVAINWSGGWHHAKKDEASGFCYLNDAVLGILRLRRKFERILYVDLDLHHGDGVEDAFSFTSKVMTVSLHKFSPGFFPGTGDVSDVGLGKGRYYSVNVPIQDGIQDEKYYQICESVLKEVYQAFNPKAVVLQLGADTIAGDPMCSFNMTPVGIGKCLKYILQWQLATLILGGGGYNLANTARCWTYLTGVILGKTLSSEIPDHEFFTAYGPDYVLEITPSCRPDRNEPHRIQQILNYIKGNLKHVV
Excerpt: as §1, §2

HDAC1 = target: T3, HDAC1 (Homo sapiens, UniProt Q13547); assay: Fluorescence-based HDAC enzyme assay, recombinant HDAC1; conditions: recombinant human HDAC enzyme in vitro; read-out: IC50 (μM) HD1
T3 construct: cDNAs corresponding to the full length human HDAC1, 2, 3 and 11 were cloned into pBlueBac4.5 vector; FLAG (C); made in house; host or cells: Sf-9 insect cells (baculovirus)
T3 sequence (Q13547 whole entry): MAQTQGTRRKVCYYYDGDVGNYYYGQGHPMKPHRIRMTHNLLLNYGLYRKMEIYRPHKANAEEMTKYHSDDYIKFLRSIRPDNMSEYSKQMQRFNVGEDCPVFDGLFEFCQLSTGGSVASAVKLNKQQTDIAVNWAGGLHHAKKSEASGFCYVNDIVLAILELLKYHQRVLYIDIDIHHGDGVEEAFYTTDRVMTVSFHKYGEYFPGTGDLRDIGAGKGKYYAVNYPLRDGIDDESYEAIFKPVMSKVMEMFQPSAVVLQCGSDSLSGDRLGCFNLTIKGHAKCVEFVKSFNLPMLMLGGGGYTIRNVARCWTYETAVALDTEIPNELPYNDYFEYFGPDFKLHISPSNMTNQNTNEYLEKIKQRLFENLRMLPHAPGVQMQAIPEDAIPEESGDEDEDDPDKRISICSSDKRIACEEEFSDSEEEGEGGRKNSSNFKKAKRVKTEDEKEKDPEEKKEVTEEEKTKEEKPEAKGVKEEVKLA
Excerpt: as §1, with “HDAC2, 3 and 11 were purified using Flag-antibody immunoaffinity purification.” left out
as §2, with “Boc-Lys(Ac)-AMC” for “Recombinant HDAC enzymes were incubated with diluted compounds in assay buffer (25 mM Hepes, pH 8.0, 137 mM NaCl, 1 mM MgCl2 and 2.7 mM KCl) for 10 minutes at ambient temperatures in black 96-well plate. Boc-Lys(Ac)-AMC”, “Calif.).” for “Calif.). The 50% inhibitory concentrations (IC50) for inhibitors were determined by analyzing dose-response inhibition curves.”

HDAC4 = target: T4, HDAC4 (Homo sapiens, UniProt P56524); assay: Fluorescence-based HDAC enzyme assay, recombinant HDAC4; conditions: recombinant human HDAC enzyme in vitro; read-out: IC50 (μM) HD4
T4 construct: cDNAs encoding truncated versions of HDAC4, 5 and 7 encompassing their deacetylase domains; hexahistidine (N); made in house; host or cells: Sf-9 insect cells (baculovirus)
T4 sequence (P56524 655-1084 limits assumed): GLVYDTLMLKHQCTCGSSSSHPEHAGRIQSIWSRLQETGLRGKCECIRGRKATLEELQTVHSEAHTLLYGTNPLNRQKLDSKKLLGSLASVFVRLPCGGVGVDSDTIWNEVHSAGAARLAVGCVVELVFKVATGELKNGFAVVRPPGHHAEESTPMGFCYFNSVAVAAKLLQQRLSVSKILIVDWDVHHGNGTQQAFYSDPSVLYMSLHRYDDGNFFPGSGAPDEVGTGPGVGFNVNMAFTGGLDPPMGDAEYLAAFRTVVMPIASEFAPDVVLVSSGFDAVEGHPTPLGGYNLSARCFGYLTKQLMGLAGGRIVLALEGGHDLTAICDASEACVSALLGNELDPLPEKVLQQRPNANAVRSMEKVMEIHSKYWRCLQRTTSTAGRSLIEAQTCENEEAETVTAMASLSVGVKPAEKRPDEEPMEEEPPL
Excerpt: as §1, §2

IC50 (HDAC5)	IC50 (HDAC8)	IC50 (HDAC1)	IC50 (HDAC4)	SMILES
> 10 µM	> 10 µM	0.02 µM	> 10 µM	Nc1ccc(-c2ccccc2)cc1NC(=O)c1ccc(N2CCC(N)CC2)cc1 [Compound E]
> 10 µM	> 10 µM	0.1 µM	> 10 µM	CN1CCN(c2ccc(C(=O)Nc3cc(-c4ccccn4)ccc3N)cc2)CC1 [Compound F]
> 10 µM	> 10 µM	0.06 µM	> 10 µM	CN1CCN(c2ccc(C(=O)Nc3cc(-c4ccncc4)ccc3N)cc2)CC1 [Compound G]
> 10 µM	> 10 µM	0.06 µM	> 10 µM	CC(C)N1CCN(c2ccc(C(=O)Nc3cc(-c4ccncc4)ccc3N)cc2)CC1 [Compound H]

Further lines, the molecule ahead of its results:

SMILES	IC50 (HDAC5)	IC50 (HDAC8)	IC50 (HDAC1)	IC50 (HDAC4)
Nc1ccccc1NC(=O)c1ccc(CNc2nccc(-c3cccnc3)n2)cc1 [Compound A]	> 10 µM	–	–	–
Nc1ccccc1NC(=O)c1ccc(N2CC[C@H](Nc3cccnc3)C2)cc1 [Compound B]	> 10 µM	1.63 µM	0.2 µM	> 10 µM
Nc1ccc(-c2ccccc2)cc1NC(=O)c1ccc(N2CC[C@H](N)C2)cc1 [Compound D]	> 10 µM	> 10 µM	0.04 µM	> 10 µM
